# According to PubChem BioAssay (NCI):
# Values joined by “and” are separate entries in the source; they are usually repeats but may differ in a detail not shown here. Identical values can stand only once.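 Dose response: 5 concentrations. Exposure: 48 h. Format: 96-well plates. Endpoint: linear interpolation; highest concentration if not reached. GI50 marks 50% less growth. TGI is the concentration that stops growth completely.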
# Columns and labels:
# Assay in all cases: NCI tumour cell line growth inhibition, 48 h
# 786-0 renal = system: 786-0 renal
# A498 renal = system: A498 renal
# A549 NSCLC = system: A549 NSCLC
# ACHN renal = system: ACHN renal
# CAKI-1 renal = system: CAKI-1 renal
# CCRF-CEM leukemia = system: CCRF-CEM leukemia
# COLO 205 colon = system: COLO 205 colon
# DLD-1 colon = system: DLD-1 colon
# DMS 114 small cell lung = system: DMS 114 small cell lung
# DMS 273 small cell lung = system: DMS 273 small cell lung
# EKVX NSCLC = system: EKVX NSCLC
# HCC-2998 colon = system: HCC-2998 colon
# HCT-116 colon = system: HCT-116 colon
# HCT-15 colon = system: HCT-15 colon
# HL-60(TB) leukemia = system: HL-60(TB) leukemia
# HOP-18 NSCLC = system: HOP-18 NSCLC
# HOP-62 NSCLC = system: HOP-62 NSCLC
# HOP-92 NSCLC = system: HOP-92 NSCLC
# HT29 colon = system: HT29 colon
# IGROV1 ovarian = system: IGROV1 ovarian
# K-562 leukemia = system: K-562 leukemia
# KM20L2 colon = system: KM20L2 colon
# LOX IMVI melanoma = system: LOX IMVI melanoma
# LXFL 529 NSCLC = system: LXFL 529 NSCLC
# M14 melanoma = system: M14 melanoma
# M19-MEL melanoma = system: M19-MEL melanoma
# MALME-3M melanoma = system: MALME-3M melanoma
# MCF7 breast = system: MCF7 breast
# MOLT-4 leukemia = system: MOLT-4 leukemia
# NCI-H23 lung = system: NCI-H23 lung
# NCI-H460 lung = system: NCI-H460 lung
# NCI/ADR-RES ovarian = system: NCI/ADR-RES ovarian
# OVCAR-3 ovarian = system: OVCAR-3 ovarian
# OVCAR-4 ovarian = system: OVCAR-4 ovarian
# OVCAR-5 ovarian = system: OVCAR-5 ovarian
# OVCAR-8 ovarian = system: OVCAR-8 ovarian
# P388 leukemia = system: P388 leukemia
# P388/ADR leukemia = system: P388/ADR leukemia
# RPMI-8226 leukemia = system: RPMI-8226 leukemia
# RXF 393 renal = system: RXF 393 renal
# SF-268 CNS = system: SF-268 CNS
# SF-295 CNS = system: SF-295 CNS
# SF-539 CNS = system: SF-539 CNS
# SK-MEL-2 melanoma = system: SK-MEL-2 melanoma
# SK-MEL-28 melanoma = system: SK-MEL-28 melanoma
# SK-MEL-5 melanoma = system: SK-MEL-5 melanoma
# SK-OV-3 ovarian = system: SK-OV-3 ovarian
# SN12C renal = system: SN12C renal
# SN12K1 renal = system: SN12K1 renal
# SNB-19 CNS = system: SNB-19 CNS
# SNB-75 CNS = system: SNB-75 CNS
# SR leukemia = system: SR leukemia
# SW-620 colon = system: SW-620 colon
# TK-10 renal = system: TK-10 renal
# U251 CNS = system: U251 CNS
# UACC-62 melanoma = system: UACC-62 melanoma
# XF 498 CNS = system: XF 498 CNS
# KM12 colon = system: KM12 colon
# NCI-H226 lung = system: NCI-H226 lung
# NCI-H522 lung = system: NCI-H522 lung
# RXF-631 renal = system: RXF-631 renal
# SNB-78 CNS = system: SNB-78 CNS
# UACC-257 melanoma = system: UACC-257 melanoma
# UO-31 renal = system: UO-31 renal
compound,measurement,setting,value
CC1[C@@H]2CC=C3[C@H]4CCC5Cc6nc7c(nc6C[C@@]5(C)C4(O)CC(=O)[C@]32CO[C@]12OC(C)(C)CC2O)CC1CC[C@@H]2C3=C[C@H]4O[C@@]5(O[C@@](C)(CO)C[C@@H]5O)C(C)[C@@]4(O)[C@]3(C)[C@@H](O)CC2[C@]1(C)C7 (stereo partly drawn),GI50,786-0 renal,0.142 nM
same,TGI,786-0 renal,44.6 nM
same,GI50,A498 renal,0.396 nM
same,TGI,A498 renal,4.25 nM and 4.93 nM
same,GI50,A549 NSCLC,0.294 nM and 1.21 nM
same,TGI,A549 NSCLC,223 nM and 1120 nM
same,GI50,ACHN renal,2.57 nM
same,TGI,ACHN renal,381 nM
same,GI50,CAKI-1 renal,0.573 nM and 4.63 nM
same,TGI,CAKI-1 renal,365 nM and > 3600 nM
same,GI50,CCRF-CEM leukemia,0.126 nM and 0.441 nM
same,TGI,CCRF-CEM leukemia,7.23 nM and 63.8 nM
same,TGI,COLO 205 colon,6.58 nM and 64.4 nM
same,GI50,DLD-1 colon,71.2 nM and 86.6 nM
same,TGI,DLD-1 colon,874 nM and > 3600 nM
same,GI50,DMS 114 small cell lung,0.367 nM
same,GI50,DMS 273 small cell lung,0.36 nM
same,GI50,EKVX NSCLC,6.15 nM and 9.96 nM
same,TGI,EKVX NSCLC,152 nM and 814 nM
same,GI50,HCC-2998 colon,321 nM
same,TGI,HCC-2998 colon,> 3600 nM
same,TGI,HCT-116 colon,105 nM and 846 nM
same,GI50,HCT-15 colon,2.34 nM and 12.7 nM
same,TGI,HCT-15 colon,73.7 nM and 589 nM
same,GI50,HL-60(TB) leukemia,0.36 nM
same,TGI,HOP-18 NSCLC,> 3600 nM
same,GI50,HOP-62 NSCLC,0.104 nM and 0.36 nM
same,TGI,HOP-62 NSCLC,0.831 nM and 2.57 nM
same,GI50,HOP-92 NSCLC,0.104 nM and 0.36 nM
same,GI50,HT29 colon,0.918 nM and 1.23 nM
same,TGI,HT29 colon,48.6 nM and 62.3 nM
same,GI50,IGROV1 ovarian,2.58 nM and 4.9 nM
same,TGI,IGROV1 ovarian,> 3600 nM
same,GI50,K-562 leukemia,0.149 nM and 1.12 nM
same,TGI,K-562 leukemia,21 nM and 59.5 nM
same,GI50,KM20L2 colon,0.664 nM and 2.02 nM
same,TGI,KM20L2 colon,70.4 nM and 67.5 nM
same,GI50,LOX IMVI melanoma,0.15 nM and 1.14 nM
same,GI50,LXFL 529 NSCLC,0.139 nM
same,TGI,LXFL 529 NSCLC,0.387 nM
same,GI50,M14 melanoma,0.135 nM
same,TGI,M14 melanoma,0.363 nM
same,GI50,M19-MEL melanoma,329 nM and 2050 nM
same,TGI,M19-MEL melanoma,> 3600 nM
same,GI50,MALME-3M melanoma,2.98 nM and 3.69 nM
same,TGI,MALME-3M melanoma,142 nM and 29.2 nM
same,TGI,MCF7 breast,441 nM
same,GI50,MOLT-4 leukemia,0.12 nM and 0.36 nM
same,TGI,MOLT-4 leukemia,0.159 nM and 1.14 nM
same,GI50,NCI-H23 lung,0.71 nM and 2.24 nM
same,TGI,NCI-H23 lung,143 nM and 377 nM
same,GI50,NCI-H460 lung,0.125 nM and 0.36 nM
same,TGI,NCI-H460 lung,15.5 nM and 140 nM
same,TGI,NCI/ADR-RES ovarian,> 3600 nM
same,TGI,OVCAR-3 ovarian,> 3600 nM
same,TGI,OVCAR-4 ovarian,> 3600 nM
same,GI50,OVCAR-5 ovarian,14.2 nM and 7.34 nM
same,TGI,OVCAR-5 ovarian,426 nM and 118 nM
same,GI50,OVCAR-8 ovarian,198 nM
same,TGI,P388 leukemia,3.82 nM
same,TGI,P388/ADR leukemia,379 nM
same,GI50,RPMI-8226 leukemia,< 0.36 nM
same,TGI,RPMI-8226 leukemia,0.322 nM and < 0.36 nM
same,GI50,RXF 393 renal,0.36 nM
same,TGI,RXF 393 renal,0.371 nM and 2.17 nM
same,GI50,SF-268 CNS,0.194 nM and 1.44 nM
same,TGI,SF-268 CNS,309 nM and 672 nM
same,GI50,SF-295 CNS,< 0.36 nM
same,TGI,SF-295 CNS,0.131 nM and < 0.36 nM
same,GI50,SF-539 CNS,0.36 nM
same,GI50,SK-MEL-2 melanoma,0.29 nM and 1.17 nM
same,TGI,SK-MEL-2 melanoma,16.4 nM and 29.4 nM
same,GI50,SK-MEL-28 melanoma,0.236 nM
same,TGI,SK-MEL-28 melanoma,2.01 nM
same,GI50,SK-MEL-5 melanoma,0.717 nM and 6.38 nM
same,GI50,SK-OV-3 ovarian,0.461 nM and 2.49 nM
same,TGI,SN12C renal,> 3600 nM
same,TGI,SN12K1 renal,> 3600 nM
same,GI50,SNB-19 CNS,2.41 nM and 16.4 nM
same,TGI,SNB-19 CNS,393 nM and > 3600 nM
same,GI50,SNB-75 CNS,0.36 nM
same,GI50,SR leukemia,0.155 nM
same,TGI,SR leukemia,82.1 nM
same,GI50,SW-620 colon,0.172 nM and 1.19 nM
same,TGI,TK-10 renal,307 nM
same,GI50,U251 CNS,0.112 nM and 0.36 nM
same,TGI,U251 CNS,74.5 nM and 95.5 nM
same,GI50,UACC-62 melanoma,0.142 nM and 0.422 nM
same,TGI,XF 498 CNS,256 nM
S=c1sc2cscc2s1,TGI,786-0 renal,46500 nM
same,TGI,A498 renal,> 100000 nM
same,TGI,A549 NSCLC,37500 nM
same,TGI,ACHN renal,42500 nM
same,TGI,CAKI-1 renal,31400 nM
same,TGI,CCRF-CEM leukemia,78000 nM
same,TGI,COLO 205 colon,40900 nM
same,TGI,DLD-1 colon,50600 nM
same,TGI,DMS 114 small cell lung,45200 nM
same,TGI,DMS 273 small cell lung,> 100000 nM
same,TGI,EKVX NSCLC,35500 nM
same,TGI,HCC-2998 colon,32800 nM
same,TGI,HCT-116 colon,37700 nM
same,TGI,HCT-15 colon,> 100000 nM
same,TGI,HL-60(TB) leukemia,81500 nM
same,TGI,HOP-18 NSCLC,67200 nM
same,TGI,HOP-62 NSCLC,74500 nM
same,TGI,HOP-92 NSCLC,70300 nM
same,TGI,HT29 colon,> 100000 nM
same,TGI,IGROV1 ovarian,> 100000 nM
same,TGI,K-562 leukemia,> 100000 nM
same,TGI,KM12 colon,33300 nM
same,TGI,KM20L2 colon,66500 nM
same,TGI,LOX IMVI melanoma,> 100000 nM
same,TGI,LXFL 529 NSCLC,38600 nM
same,TGI,M14 melanoma,39900 nM
same,TGI,M19-MEL melanoma,34300 nM
same,TGI,MALME-3M melanoma,30600 nM
same,TGI,MOLT-4 leukemia,> 100000 nM
same,TGI,NCI-H226 lung,49500 nM
same,TGI,NCI-H23 lung,97700 nM
same,TGI,NCI-H460 lung,53800 nM
same,TGI,NCI-H522 lung,36700 nM
same,TGI,OVCAR-3 ovarian,54900 nM
same,TGI,OVCAR-4 ovarian,33000 nM
same,TGI,OVCAR-5 ovarian,> 100000 nM
same,TGI,OVCAR-8 ovarian,45900 nM
same,TGI,RPMI-8226 leukemia,> 100000 nM
same,TGI,RXF 393 renal,51500 nM
same,TGI,RXF-631 renal,61000 nM
same,TGI,SF-268 CNS,64500 nM
same,TGI,SF-295 CNS,> 100000 nM
same,TGI,SF-539 CNS,65500 nM
same,TGI,SK-MEL-2 melanoma,> 100000 nM
same,TGI,SK-MEL-28 melanoma,41100 nM
same,TGI,SK-MEL-5 melanoma,70600 nM
same,TGI,SK-OV-3 ovarian,77300 nM
same,TGI,SN12C renal,> 100000 nM
same,TGI,SNB-19 CNS,46000 nM
same,TGI,SNB-75 CNS,35800 nM
same,TGI,SNB-78 CNS,> 100000 nM
same,TGI,SR leukemia,> 100000 nM
same,TGI,SW-620 colon,41100 nM
same,TGI,TK-10 renal,40200 nM
same,TGI,U251 CNS,> 100000 nM
same,TGI,UACC-257 melanoma,44700 nM
same,TGI,UACC-62 melanoma,34000 nM
same,TGI,UO-31 renal,35600 nM
same,TGI,XF 498 CNS,49900 nM
